Measured values taken from article PMC9741287, “Cytotoxic and Luminescent Properties of Novel Organotin Complexes with Chelating Antioxidant Ligand” (Molecules, 2022).
Like-named read-outs stand apart in the source and are kept apart here.

What was measured:
[1] = target: T1, Soybean lipoxygenase LOX-1B (Glycine max, UniProt P08170); test: Lipoxygenase inhibition assay; format: biochemical; conditions: 3 µL of 1 mM compound in DMSO per 150 µL, 5 min, 20 °C, 234 nm
T1 sequence (P08170 1-839): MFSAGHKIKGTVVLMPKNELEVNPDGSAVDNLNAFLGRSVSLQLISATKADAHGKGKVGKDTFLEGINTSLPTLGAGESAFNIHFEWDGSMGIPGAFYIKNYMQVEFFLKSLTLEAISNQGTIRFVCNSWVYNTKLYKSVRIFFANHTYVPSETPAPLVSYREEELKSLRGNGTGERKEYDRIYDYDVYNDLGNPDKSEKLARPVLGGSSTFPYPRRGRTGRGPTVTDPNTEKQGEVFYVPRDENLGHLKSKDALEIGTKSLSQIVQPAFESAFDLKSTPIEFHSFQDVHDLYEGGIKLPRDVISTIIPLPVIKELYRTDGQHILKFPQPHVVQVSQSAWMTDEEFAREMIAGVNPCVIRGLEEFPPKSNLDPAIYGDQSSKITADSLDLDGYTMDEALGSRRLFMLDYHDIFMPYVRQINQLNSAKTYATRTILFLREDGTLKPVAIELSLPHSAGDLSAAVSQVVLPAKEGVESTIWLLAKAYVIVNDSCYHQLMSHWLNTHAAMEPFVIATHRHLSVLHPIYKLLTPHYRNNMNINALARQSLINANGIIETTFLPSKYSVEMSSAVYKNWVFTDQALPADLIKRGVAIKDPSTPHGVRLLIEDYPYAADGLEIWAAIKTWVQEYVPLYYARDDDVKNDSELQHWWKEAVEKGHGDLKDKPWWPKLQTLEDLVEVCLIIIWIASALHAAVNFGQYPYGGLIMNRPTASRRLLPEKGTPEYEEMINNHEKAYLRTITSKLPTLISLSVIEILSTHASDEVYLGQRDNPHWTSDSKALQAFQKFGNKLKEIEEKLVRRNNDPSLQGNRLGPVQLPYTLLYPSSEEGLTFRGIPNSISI
Description: Lipoxygenases are a group of enzymes catalyzing regioselective oxidation of polyunsaturated fatty acids to corresponding hydroperoxides. […] Soybean lipoxygenase LOX-1B was used as a model enzyme since it is structurally relative to human 5-lipoxygenases. The influence of synthesized compounds 1–7 on the LOX-1B activity was estimated as a formation rate of octadecadienoic acid hydroperoxides (λmax = 234 nm) from the initial acid and was monitored spectrophotometrically (Table 1).
The lipoxygenase activity was evaluated spectrophotometrically. The concentrations of linoleic acid oxidation products, isomeric hydroperoxides, were measured at λmax = 234 nm (ε = 25,000 L mol^−1 cm^−1) with a 96-well microplate spectrophotometer Multiskan Go (Thermo Fisher Scientific, Waltham, MA, USA). The analyzed solution contained 30 µL borate buffer (pH 9.0), 100 µL linoleic acid (0.45 mM) in borate buffer, and 3 µL 1 mM solution of the test compound in DMSO. The reaction was initiated by the addition of 17 µL of lipoxygenase (500 U) solution in borate buffer. The measurements were performed for 5 min at 20 °C.
The inhibition rate I (%) of lipoxygenase was determined by the Equations (2) and (3), where A0 is the absorbance of the control solution, and A1 is the absorbance of the reaction mixture in the presence of the tested compound 5 min after the beginning of the reaction. ΔA is the difference between A1 and A0. All experiments were performed in triplicate.

[2] = test system: formation of advanced glycation end products (AGEs); test: Antiglycation activity (BSA-glucose, AGE fluorescence); format: biochemical; conditions: for Antiglycation activity, M ± SEM: 24 h at 60 °C
Procedure: The glycation reaction was carried out in a phosphate buffer solution of 0.05 M, pH 7.4. Composition of the reaction medium: 0.36 M glucose solution and 1 mg/mL BSA (fraction V). The test compounds were dissolved in 99% DMSO (final concentration in the reaction medium ~3%). The activity of compound 1 was studied in the concentration range of 1000–0.1 μM, and the activity of aminoguanidine was determined at concentrations of 10,000–1000 μM. Control samples contained an equivalent volume of solvent. The samples were incubated for 24 h at 60 °C.
Data registration was carried out by the spectrofluorimetric method, determining AGE by specific fluorescence at excitation/emission wavelengths of 370/440 nm (spectrofluorimeter M 200 PRO, TECAN Austria GmbH, Grödig, Austria).
In order to exclude false positive results for compounds suppressing AGE fluorescence due to interference, the obtained data were logarithmically normalized according to Equation (4):Fly(log) = 10^(log10(Exp)−log10(Blank)) − 1(4) where Fly(log) is the normalized AGE fluorescence intensity, log10(Exp) and log10(blank) are the decimal logarithms of the actual fluorescence levels of glycated and corresponding non-glycated samples (both containing the test compound and controls).
The activity of other compounds (both non-fluorescent and fluorescent at the wavelengths used) was expressed by the Equation (5):Fly(lin) = Exp − Blank(5) where Fly(lin) is the fluorescence intensity of AGEs, Exp and blank are the actual fluorescence levels of glycated and corresponding non-glycated samples (both those containing the test compound and controls).
Determination of activity expressed as % suppression of fluorescence of AGE, was made according to the Equation (6):% = 100 − (Fly(Exp) × 100/Fly(Contr))(6) where Fly(Exp) and Fly(Contr) are the CPG fluorescence intensity of experimental and control samples, respectively (log-normalized or non-log-normalized).

[3] = test system: HCT116 (human colorectal carcinoma); test: MTT-test HCT116; format: cell-based
Procedure: Since the investigated compounds are designed as theranostic and cytostatic agents, their toxic impact was evaluated as a standard MTT-test. Cytotoxicity was studied on four cell lines, i.e.,—HCT116 (human colorectal carcinoma), MCF-7 (human breast cancer), A549 (human lung adenocarcinoma), and WI-38 (human fetal lung fibroblast). Obtained results appear to be unorthodox: as it is known, the introduction of an organotin moiety tends to noticeably increase compounds’ toxicity and more lipophilic ones do it better, but in the presented data pattern turns vice versa (Table 3).
HCT-116 (colon carcinoma), MCF-7 (breast adenocarcinoma), A-549 (lung adenocarcinoma) cell lines, and WI-38 (cell line composed of fibroblasts) were derived from The European Collection of Authenticated Cell Cultures (ECACC, Salisbury, UK), cultured in DMEM medium (Gibco™, Dublin, Ireland) supplemented with 10% fetal bovine serum (Gibco™, Brasilia, Brazil). The cells were cultured in an incubator at 37 °C in a humidified 5% CO2 atmosphere and subcultured two times a week.
The toxicity of compounds was studied on cultured cell lines according to standard MTT protocol.

Structure (SMILES)	I (LOX Inhibition Assay) [1] [%]	IC50 [3] [µM]	further results
CC(C)(C)c1cc(C(=O)N/N=C/c2ccccc2O)cc(C(C)(C)C)c1O [Compound 1, Di-tert-butyl-4-hydroxy-N′-(2-hydroxybenzylidene)-benzohydrazine]			inhibition at 1000 µM (stock) ([1]; read-out: I (LOX Inhibition Assay)): 51.7 ± 4.2%; IC50 [2]: 2.8 µM; Antiglycation activity, M ± SEM ([2]; concentration 0.3 µM): −1.9 ± 1.4%; Antiglycation activity, M ± SEM ([2]; concentration 1 µM): 0.6 ± 2.3%; Antiglycation activity, M ± SEM ([2]; concentration 3 µM): 53.9 ± 2.5%; Antiglycation activity, M ± SEM ([2]; concentration 10 µM): 60.1 ± 1.1%; Antiglycation activity, M ± SEM ([2]; concentration 30 µM): 62.0 ± 0.7%; Antiglycation activity, M ± SEM ([2]; concentration 100 µM): 61.6 ± 0.5%; Antiglycation activity, M ± SEM ([2]; concentration 300 µM): 73.2 ± 1.9%; Antiglycation activity, M ± SEM ([2]; concentration 1000 µM): 70.2 ± 8.0%; IC50 ([3]; Homo sapiens, HCT-116): 1.7 ± 0.4 µM
CC(C)(C)c1cc(C2=NN=Cc3ccccc3[O][Sn]([CH3])([CH3])[O]2)cc(C(C)(C)C)c1O [Compound 2, Me2SnL]	57.1 ± 4.7	2.4 ± 0.8	
CC(C)(C)c1cc(C2=NN=Cc3ccccc3[O][Sn]([C](C)(C)C)([C](C)(C)C)[O]2)cc(C(C)(C)C)c1O [Compound 5, Bu^t2SnL]	61.4 ± 5.3	34.3 ± 14	
CCC[CH2][Sn]1([CH2]CCC)[O]C(c2cc(C(C)(C)C)c(O)c(C(C)(C)C)c2)=NN=Cc2ccccc2[O]1 [Compound 4, Bu2SnL]	47.5 ± 3.8	10 ± 2.3	
CC(C)(C)c1cc(C2=NN=Cc3ccccc3[O][Sn]([c]3ccccc3)([c]3ccccc3)[O]2)cc(C(C)(C)C)c1O [Compound 6, Ph2SnL]	44.9 ± 3.7	20 ± 11	
C[CH2][Sn]1([CH2]C)[O]C(c2cc(C(C)(C)C)c(O)c(C(C)(C)C)c2)=NN=Cc2ccccc2[O]1 [Compound 3, Et2SnL]	61.1 ± 5.1	1.4 ± 0.5	
CC(C)(C)c1cc(C2=NN=Cc3ccccc3[O][Sn]([c]3cc(C(C)(C)C)c(O)c(C(C)(C)C)c3)([c]3cc(C(C)(C)C)c(O)c(C(C)(C)C)c3)[O]2)cc(C(C)(C)C)c1O [Compound 7, (2,6-Di-tert-butylphenol)2SnL]	66.0 ± 5.9	20.5 ± 6.4	
